Data taken from the supplement of paper PMC10307832.

What was measured:
Assay in all cases: relative viability (nuclei count vs DMSO), 5 days (fraction); higher = more cells survive
[1] = compound: CCn1c(-c2nonc2N)nc2cnc(Oc3cccc(NC(=O)c4ccc(OCCN5CCOCC5)cc4)c3)cc21 + NC(=O)Nc1cc(-c2cccc(F)c2)sc1C(=O)N[C@H]1CCCNC1 [AZD7762] (partner 0.2 µM)
Method in brief: (§1)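 Each reported value is a median over duplicate plates. It expresses relative viability: treated-well nuclei count divided by vehicle-well nuclei count. Lung cancer cell lines in 1536-well plates were dosed by pin tool a day after seeding, alone with one drug or with a fixed anchor-drug dose plus five library-drug doses (not always all listed) in √10 steps, and nuclei were counted after 5 days.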

[2] = compound: CCn1c(-c2nonc2N)nc2cnc(Oc3cccc(NC(=O)c4ccc(OCCN5CCOCC5)cc4)c3)cc21 + N=C(N)NC(=N)NCCc1ccccc1 [Phenformin] (partner 250 µM)
Method in brief: as §1

[3] = compound: CCn1c(-c2nonc2N)nc2cnc(Oc3cccc(NC(=O)c4ccc(OCCN5CCOCC5)cc4)c3)cc21 + Cc1nc(Nc2ncc(C(=O)Nc3c(C)cccc3Cl)s2)cc(N2CCN(CCO)CC2)n1 [Dasatinib] (partner 0.075 µM)
Method in brief: as §1

[4] = compound: N=C1NC(=O)/C(=C/c2ccc(O)cc2)S1 [Mirin] + Nc1ncn([C@H]2C[C@H](O)[C@@H](CO)O2)c(=O)n1 [Decitabine] (partner 2 µM)
Method in brief: as §1

Row | Cell Line | relative viability ([1]; first compound 0.04 µM) | relative viability ([1]; first compound 0.1265 µM) | relative viability ([1]; first compound 0.4 µM) | relative viability ([1]; first compound 1.265 µM) | relative viability ([1]; first compound 4 µM) | relative viability ([2]; first compound 0.04 µM) | relative viability ([2]; first compound 0.1265 µM) | relative viability ([2]; first compound 0.4 µM) | relative viability ([2]; first compound 1.265 µM) | relative viability ([2]; first compound 4 µM) | relative viability ([3]; first compound 0.04 µM) | relative viability ([3]; first compound 0.1265 µM) | relative viability ([3]; first compound 0.4 µM) | relative viability ([3]; first compound 1.265 µM) | relative viability ([3]; first compound 4 µM) | relative viability ([4]; first compound 0.25 µM) | relative viability ([4]; first compound 0.7906 µM) | relative viability ([4]; first compound 2.5 µM) | relative viability ([4]; first compound 7.906 µM) | relative viability ([4]; first compound 25 µM)
1 | NCI-H1651 | 0.566 | 0.477 | 0.373 | 0.146 | 0.282 | 0.433 | 0.323 | 0.287 | 0.266 | 0.239 | 0.499 | 0.369 | 0.229 | 0.247 | 0.267 | 0.259 | 0.577 | 0.657 | 0.536 | 0.612
2 | NCI-H1666 | 0.907 | 0.875 | 0.694 | 0.383 | 0.477 | 0.597 | 0.603 | 0.582 | 0.211 | 0.259 | 0.788 | 0.617 | 0.442 | 0.28 | 0.278 | 0.543 | 0.676 | 0.76 | 0.654 | 0.692
3 | NCI-H1734 | 0.581 | 0.423 | 0.274 | 0.22 | 0.224 | 0.427 | 0.388 | 0.209 | 0.284 | 0.201 | 0.416 | 0.39 | 0.232 | 0.229 | 0.198 | 0.479 | 0.493 | 0.565 | 0.491 | 0.419
4 | NCI-H1755 | 0.437 | 0.4 | 0.291 | 0.243 | 0.31 | 0.565 | 0.508 | 0.301 | 0.304 | 0.332 | 0.373 | 0.257 | 0.15 | 0.206 | 0.186 | 0.725 | 0.775 | 0.703 | 0.717 | 0.752
5 | NCI-H1792 | 0.541 | 0.37 | 0.15 | 0.106 | 0.11 | 0.333 | 0.177 | 0.0802 | 0.145 | 0.225 | 0.954 | 0.514 |  | 0.405 | 0.488 | 0.5 | 0.504 | 0.665 | 0.516 | 0.573
6 | NCI-H1793 | 0.483 | 0.284 | 0.276 | 0.179 | 0.157 | 0.459 | 0.464 | 0.253 | 0.212 | 0.168 | 0.385 | 0.284 | 0.208 | 0.183 | 0.194 | 0.472 |  | 0.434 | 0.52 | 0.48
7 | NCI-H1915 | 0.726 | 0.569 | 0.467 | 0.251 | 0.201 | 0.38 | 0.355 | 0.285 | 0.188 | 0.169 | 0.33 | 0.3 | 0.236 | 0.186 | 0.188 | 0.275 | 0.252 | 0.278 | 0.255 | 0.255
8 | NCI-H1944 | 0.5 | 0.524 | 0.297 | 0.249 | 0.202 | 0.192 | 0.161 | 0.109 | 0.111 | 0.102 | 0.192 | 0.154 | 0.138 | 0.157 | 0.139 | 0.426 | 0.471 | 0.489 | 0.425 | 0.436
9 | NCI-H1975 | 0.597 | 0.471 | 0.374 | 0.201 | 0.214 | 0.343 | 0.277 | 0.208 | 0.186 | 0.168 | 0.309 | 0.268 | 0.186 | 0.18 | 0.142 | 0.427 | 0.329 | 0.402 | 0.36 | 0.401
10 | NCI-H1993 | 0.763 | 0.701 | 0.598 | 0.742 | 0.742 | 0.66 | 0.562 | 0.546 | 0.565 | 0.508 | 0.596 | 0.572 | 0.5 | 0.552 | 0.569 | 0.656 | 0.46 | 0.663 | 0.525 | 0.551
11 | NCI-H2085 | 1.09 | 0.924 | 0.927 | 0.634 | 0.787 | 0.787 | 0.676 | 0.596 | 0.551 | 0.559 | 0.307 | 0.308 | 0.396 | 0.251 | 0.223 | 0.562 | 0.537 | 0.546 | 0.553 | 0.604
12 | NCI-H2087 | 1.45 | 1.11 | 1.13 | 0.845 | 0.867 | 0.598 | 0.458 | 0.474 | 0.432 | 0.372 | 0.866 | 0.673 | 0.544 | 0.558 | 0.63 | 0.245 | 0.215 | 0.286 | 0.24 | 0.208
13 | NCI-H2126 | 1.07 | 0.998 | 0.832 | 0.924 | 0.839 | 0.646 | 0.571 | 0.392 |  | 0.405 | 0.628 | 0.522 | 0.284 |  | 0.336 | 0.556 | 0.534 | 0.586 | 0.557 | 0.461
14 | NCI-H2170 | 0.763 | 0.74 | 0.749 | 0.577 | 0.478 | 0.468 | 0.417 | 0.388 | 0.355 | 0.315 | 0.553 | 0.676 | 0.665 | 0.515 | 0.443 | 0.462 | 0.483 | 0.45 | 0.415 | 0.411
15 | NCI-H2342 | 0.572 | 0.551 | 0.361 | 0.422 | 0.459 | 0.71 | 0.585 | 0.581 | 0.449 | 0.66 | 0.332 | 0.319 | 0.294 | 0.289 | 0.302 | 0.77 | 0.775 | 0.684 |  | 0.633
16 | NCI-H2347 | 0.951 | 0.766 | 0.641 | 0.378 | 0.413 | 0.521 | 0.784 | 0.465 | 0.312 | 0.403 | 0.402 | 0.436 | 0.286 | 0.374 | 0.349 | 0.595 | 0.599 | 0.604 | 0.604 | 0.611
17 | NCI-H2405 | 0.446 | 0.18 | 0.14 | 0.144 | 0.137 | 0.379 | 0.236 | 0.0695 | 0.124 | 0.13 | 0.239 | 0.166 | 0.158 | 0.135 | 0.139 | 0.72 |  | 0.691 | 0.725 | 0.708
18 | NCI-H3122 | 1.06 | 0.984 | 0.939 | 0.871 | 0.739 | 0.369 | 0.328 | 0.317 | 0.256 | 0.23 | 0.955 | 0.82 | 0.651 | 0.554 | 0.525 | 0.41 | 0.431 | 0.432 | 0.372 | 0.353
19 | PC-3 [JPC-3] | 0.892 | 0.889 | 0.828 | 0.56 | 0.658 | 0.5 | 0.488 | 0.478 | 0.465 | 0.459 | 0.981 | 0.902 | 0.605 | 0.728 | 0.648 | 0.818 | 0.825 | 0.825 | 0.76 | 0.836
20 | PC-14 | 0.334 | 0.323 | 0.218 | 0.215 | 0.232 | 0.962 | 0.556 | 0.549 | 0.258 | 0.457 | 0.221 | 0.173 | 0.174 | 0.158 | 0.115 | 0.2 | 0.24 | 0.232 | 0.225 | 0.205
21 | RERF-LC-KJ | 0.941 | 0.956 | 0.448 | 0.298 | 0.538 | 0.487 | 0.42 | 0.379 | 0.289 | 0.324 | 0.88 | 0.746 | 0.462 | 0.43 | 0.347 | 0.691 | 0.753 | 0.684 | 0.622 | 0.561
22 | SW 900 | 0.668 | 0.59 | 0.647 | 0.435 | 0.495 | 0.71 | 0.548 | 0.506 | 0.39 | 0.548 | 0.413 | 0.456 | 0.312 | 0.42 | 0.41 | 0.326 | 0.413 | 0.438 | 0.414 | 0.384
